Measured values as given in patent US7491827B2, “Aryl sulfonamides useful as inhibitors of chemokine receptor activity” (Millennium Pharmaceuticals, Inc., priority 2003, dated 2009).
Where two headings read alike, the source gives them in different places.

Molecular target: T1, cloned human CCR8 receptor stably expressed in L1.2 cells (Homo sapiens, UniProt P51685)
T1 construct: expressed in transfected cells
Assay: whole cell binding screen: inhibition of biotinylated human I309 binding to CCR8 (FMAT 8100 HTS)
Conditions: biotinylated human I-309, 10 point concentration response starting at 10 μM
Procedure, shortened: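 Ten-point dilutions, top 10 μM final, were tested for displacing biotin-I309 from hCCR8-transfected L1.2 cells in HEPES-buffered HBSS with BSA and sodium azide, mixing 0.5 h before FMAT 8100 detection. Signals converted to percent inhibition against untreated wells and a 100 nM excess unlabeled I309 control.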

[1] = L1.2/hCCR8 cells, read-out: Ki of compounds to inhibit I-309 binding to CCR8
[2] = Ki of compounds to inhibit I-309 binding to CCR8, L1.2/hCCR8 cells

T1 sequence (P51685 whole entry): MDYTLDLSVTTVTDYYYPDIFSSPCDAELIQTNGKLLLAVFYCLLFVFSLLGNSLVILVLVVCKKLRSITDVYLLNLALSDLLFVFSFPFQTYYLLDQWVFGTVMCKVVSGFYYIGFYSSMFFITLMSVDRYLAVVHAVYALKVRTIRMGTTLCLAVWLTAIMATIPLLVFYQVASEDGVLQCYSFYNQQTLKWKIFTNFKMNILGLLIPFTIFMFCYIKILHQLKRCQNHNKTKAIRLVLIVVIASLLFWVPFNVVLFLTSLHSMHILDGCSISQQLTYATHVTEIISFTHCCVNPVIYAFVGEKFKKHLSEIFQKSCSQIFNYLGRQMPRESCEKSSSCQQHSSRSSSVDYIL

Compound | Ki [1] | Ki [2]
Cc1ccccc1C(=O)Nc1ccc(S(=O)(=O)NC2CCN(S(=O)(=O)c3ccccc3)CC2)c2ccccc12 [Compound C-58, N-[4-(1-Benzenesulfonyl-piperidin-4-ylsulfamoyl)-naphthalen-1-yl]-2-methyl-benzamide] | < 500 nM | –
CCOC(=O)N1CC[C@H](NS(=O)(=O)c2ccc(NC(=O)c3ccccc3C)c3ccccc23)[C@H](C)C1 (racemic) [Compound C-136, (±)-cis-3-Methyl-4-[4-(2-methyl-benzoylamino)-naphthalene-1-sulfonylamino]-piperidine-1-carboxylic acid ethyl ester] | < 500 nM | –
CN[C@@H](C)C(=O)N1CCC(NS(=O)(=O)c2ccc(NC(=O)c3ccccc3C)c3ccccc23)CC1 [Compound C-123, (S)-2-Methyl-N-{4-[1-(2-methylamno-propionyl)-piperidin-4-ylsulfamoyl]-naphthalen-1-yl}-benzamide] | – | < 500 nM
CC(C)(C)OC(=O)N1CCC(NS(=O)(=O)c2ccc(NC(=O)c3ccccc3)c3ccccc23)C1 (stereo not shown) [Compound A-37, 3-(4-Benzoylamino-naphthalene-1-sulfonylamino)-pyrrolidine-1-carboxylic acid tert-butyl ester] | < 500 nM | –
Cc1ccccc1C(=O)Nc1ccc(S(=O)(=O)NC2CCN(C(=O)CN3CCCCC3)CC2)c2ccccc12 [Compound C-148, 2-Methyl-N-{4-[1-(2-piperidin-1-yl-acetyl)-piperidin-4-ylsulfamoyl]-naphthalen-1-yl}-benzamide] | < 30000 nM | –
CCOC(=O)N1CCC(NS(=O)(=O)c2ccc(NC(=O)c3ccccc3C)c3ccccc23)CC1 [Compound A-40, 4-[4-(2-Methyl-benzoylamino)-naphthalene-1-sulfonylamino]-piperidine-1-carboxylic acid ethyl ester] | – | < 500 nM
Cc1ccccc1C(=O)Nc1ccc(S(=O)(=O)NC2CCNC2)c2c1CCCC2 (racemic) [Compound E-29, (±)-2-Methyl-N-[4-(pyrrolidin-3-ylsulfamoyl)-5,6,7,8-tetrahydro-naphthalen-1-yl]-benzamide] | < 500 nM | –
CC(=O)N1CC[C@H](NS(=O)(=O)c2ccc(NC(=O)c3ccccc3C)c3ccccc23)[C@@H](C)C1 (racemic) [Compound C-31, (±)-(trans)-N-[4-(1-Acetyl-3-methyl-piperidin-4-ylsulfamoyl)-naphthalen-1-yl]-2-methyl-benzamide] | < 500 nM | –
CC(C)(C)OC(=O)N1CCC(NS(=O)(=O)c2ccc(NC(=O)C3CCCC3)c3ccccc23)CC1 [Compound B-16, 4-[4-(Cyclopentanecarbonyl-amino)-naphthalene-1-sulfonylamino]-piperidine-1-carboxylic acid tert-butyl ester] | < 1000 nM | –
COc1ccc(NS(=O)(=O)c2ccc(N3C(=O)c4ccccc4C3=O)c3ccccc23)cc1 [Compound A-2, 4-(1,3-Dioxo-1,3-dihydro-isoindol-2-yl)-naphthalene-1-sulfonic acid (4-methoxyphenyl)-amide] | – | < 30000 nM
Cc1ccccc1C(=O)Nc1ccc(S(=O)(=O)N[C@H]2CCNC[C@@H]2C)c2ccccc12 (racemic) [Compound C-14, (±)-trans-2-MethylN-[4-(3-methyl-piperidin-4-ylsulfamoyl)-naphthalen-1-yl]-benzamide] | < 500 nM | –
CCCC(=O)N1CC[C@H](NS(=O)(=O)c2ccc(NC(=O)c3ccccc3C)c3ccccc23)[C@H](C)C1 (racemic) [Compound C-139, (±)-cis-N-[4-(1-Butryl-3-methyl-piperidin-4-ylsuffamoyl)-naphthalen-1-yl]-2-methyl-benzamide] | < 500 nM | –
CCCC(=O)N1CCC(NS(=O)(=O)c2ccc(NC(=O)c3c(F)cccc3C(F)(F)F)c3ccccc23)CC1 [Compound C-110, N-[4-(1-Butyryl-piperidin-4-ylsulfamoyl)-naphthalen-1-yl]-2-fluoro-6-trifluoromethyl-benzamide] | < 500 nM | –
O=C(Nc1ccc(S(=O)(=O)Nc2ccc(C(F)(F)F)cc2)c2ccccc12)c1ccccc1 [Compound A-30, N-[4-(4-Trifluoromethyl-phenylsulfamoyl)-naphthalen-1-yl]-benzamide] | < 30000 nM | –
CC(C)(C)OC(=O)N1CCC(NS(=O)(=O)c2ccc(C(=O)NC3CCOCC3)c3ccccc23)CC1 [Compound F-15, 4-[4-(Tetrahydro-pyran-4-ylcarbamoyl)-naphthalene-1-sulfonylamino]-piperidine-1-carboxylic acid tert-butyl ester] | < 30000 nM | –
Cc1ccccc1C(=O)Nc1ccc(S(=O)(=O)N[C@@H]2[C@H](C)CN(C(=O)N(C)C)C[C@@H]2C)c2ccccc12 [Compound C-71, (±)-(cis,cis)-3,5-Dimethyl-4-[4-(2-methyl-benzoylamino)-naphthalene-1-sulfonylamino]-piperidine-1-carboxylic acid dimethylamide] | < 1000 nM | –
Cc1ccccc1C(=O)Nc1ccc(S(=O)(=O)NCCCN2CCOCC2)c2c1CCCC2 [Compound E-25, 2-Methyl-N-[4-(3-morpholin-4-yl-propylsulfamoyl)-5,6,7,8-tetrahydro-naphthalen-1-yl]-benzamide] | < 30000 nM | –

The next lines start with the values.

Ki [1] | Ki [2] | Compound
< 500 nM | – | CCOC(=O)N1CCC(NS(=O)(=O)c2cc3c(c(NC(=O)c4ccccc4)c2)CCCC3)CC1 [Compound H-56, 4-(4-Benzoylamino-5,6,7,8-tetrahydro-naphthalene-2-sulfonylamino)-piperidine-1-carboxylic acid ethyl ester]
< 500 nM | – | CCOC(=O)N1CCC(NS(=O)(=O)c2cccc3c(CNC4CCCCC4)cccc23)CC1 [Compound H-46, 4-(5-Cyclohexylainnomethyl-naphthalene-1-sulfonylainino)-piperidine-1-carboxylic acid ethyl ester]
< 500 nM | – | CCCC(=O)N1CCC(NS(=O)(=O)c2ccc(NC(=O)c3ccccc3C)c3c2CCC3)C1 (racemic) [Compound H-71, (±)-N-[7-(1-Butyryl-pyrrolidin-3-ylsulfamoyl)-indan-4-yl]-2-methyl-benzamide]
< 500 nM | – | Cc1ccccc1C(=O)Nc1ccc(S(=O)(=O)N[C@H]2CCNC[C@H]2C)c2ccccc12 [Compound J-50]
< 500 nM | – | Cc1ccccc1C(=O)Nc1cccc2c(S(=O)(=O)NC3CCN(C(=O)N4CCOCC4)CC3)cccc12 [Compound H-11, 2-Methyl-N-{5-[1-(morpholine-4-carbonyl)-piperidin-4-ylsulfamoyl]-naphthalen-1-yl}-benzamide]
< 500 nM | – | CC1CCCCC1NC(=O)c1cccc2c(S(=O)(=O)NC3CCN(C(=O)N(C)C)CC3)cccc12 (racemic) [Compound H-33, (±)-4-[5-(2-Methyl-cyclohexylcarbamoyl)-naphthalene-1-sulfonylamino]-piperidine-1-carboxylic acid dimethylamide]
< 500 nM | – | CCOC(=O)N1CCC(NS(=O)(=O)c2ccc(NC(=O)c3ccccc3C)c3c2CN(CC)CC3)CC1 [Compound J-42, 4-[2-Ethyl-5-(2-methyl-benzoylamno)-1,2,3,4-tetrahydro-isoquinoline-8-sulfonylamino]-piperidine-1-carboxylic acid ethyl ester]
< 30000 nM | – | CCCC(=O)N1CCC(NS(=O)(=O)c2cc3c(c(N4C(=O)c5ccccc5C4=O)c2)CCCC3)CC1 [Compound H-60, 4-(1,3-Dioxo-1,3-dihydro-isoindol-2-yl)-5,6,7,8-tetrahydro-naphthalene-2-sulfonic acid (1-butyryl-piperidin-4-yl)-amide]
